Measured values published in patent US11542247B2, “Bi-heteroaryl substitute 1,4-benzodiazepines and uses thereof for the treatment of cancer” (Janssen Pharmaceutica NV, priority 2015, dated 2023).

Legend:
Experiment in all cases: Enzyme binding assay (KINOMEscan)
Settings in all cases: DiscoveRx, pKd = -log Kd (M)
[1] = biological target: FGFR2 (Homo sapiens (Human), UniProt P21802)
Protocol: (§1) Enzyme Binding Assays (KINOMEscan®)
(§2) Kinase enzyme binding affinities of compounds disclosed herein were determined using the KINOMEscan® technology performed by DiscoveRx Corporation, San Diego, Calif., USA (www.kinomescan.com). Table A2 reports the obtained pKd values, with Kd (M) being the inhibitor binding constant value and with pKd being −log Kd: […]

[2] = biological target: FGFR4 (Homo sapiens (Human), UniProt P22455)
Chain of FGFR4 (P22455 22-802): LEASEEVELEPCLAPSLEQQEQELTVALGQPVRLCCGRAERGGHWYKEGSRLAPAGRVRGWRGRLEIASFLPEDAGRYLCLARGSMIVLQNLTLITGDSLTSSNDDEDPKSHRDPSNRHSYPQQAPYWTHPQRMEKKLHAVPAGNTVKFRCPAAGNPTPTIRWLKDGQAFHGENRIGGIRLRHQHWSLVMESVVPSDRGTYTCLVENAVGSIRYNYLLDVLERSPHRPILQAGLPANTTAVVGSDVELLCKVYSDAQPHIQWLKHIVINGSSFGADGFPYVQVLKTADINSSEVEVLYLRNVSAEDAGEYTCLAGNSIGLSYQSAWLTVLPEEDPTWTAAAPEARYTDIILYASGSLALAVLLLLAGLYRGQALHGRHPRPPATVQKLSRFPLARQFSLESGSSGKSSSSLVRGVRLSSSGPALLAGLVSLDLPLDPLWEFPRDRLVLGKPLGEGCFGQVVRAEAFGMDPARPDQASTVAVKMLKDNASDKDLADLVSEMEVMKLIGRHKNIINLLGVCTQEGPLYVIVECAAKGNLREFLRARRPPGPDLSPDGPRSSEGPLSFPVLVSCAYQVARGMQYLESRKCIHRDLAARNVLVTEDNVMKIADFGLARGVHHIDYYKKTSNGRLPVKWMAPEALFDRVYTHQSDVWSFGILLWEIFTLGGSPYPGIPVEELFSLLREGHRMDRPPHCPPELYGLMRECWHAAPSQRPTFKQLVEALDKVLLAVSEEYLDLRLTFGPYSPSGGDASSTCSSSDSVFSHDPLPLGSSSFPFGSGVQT
Protocol: as §1, §2

[3] = biological target: VEGFR2 (Homo sapiens (Human), UniProt P35968)
Chain of VEGFR2 (P35968 20-1356): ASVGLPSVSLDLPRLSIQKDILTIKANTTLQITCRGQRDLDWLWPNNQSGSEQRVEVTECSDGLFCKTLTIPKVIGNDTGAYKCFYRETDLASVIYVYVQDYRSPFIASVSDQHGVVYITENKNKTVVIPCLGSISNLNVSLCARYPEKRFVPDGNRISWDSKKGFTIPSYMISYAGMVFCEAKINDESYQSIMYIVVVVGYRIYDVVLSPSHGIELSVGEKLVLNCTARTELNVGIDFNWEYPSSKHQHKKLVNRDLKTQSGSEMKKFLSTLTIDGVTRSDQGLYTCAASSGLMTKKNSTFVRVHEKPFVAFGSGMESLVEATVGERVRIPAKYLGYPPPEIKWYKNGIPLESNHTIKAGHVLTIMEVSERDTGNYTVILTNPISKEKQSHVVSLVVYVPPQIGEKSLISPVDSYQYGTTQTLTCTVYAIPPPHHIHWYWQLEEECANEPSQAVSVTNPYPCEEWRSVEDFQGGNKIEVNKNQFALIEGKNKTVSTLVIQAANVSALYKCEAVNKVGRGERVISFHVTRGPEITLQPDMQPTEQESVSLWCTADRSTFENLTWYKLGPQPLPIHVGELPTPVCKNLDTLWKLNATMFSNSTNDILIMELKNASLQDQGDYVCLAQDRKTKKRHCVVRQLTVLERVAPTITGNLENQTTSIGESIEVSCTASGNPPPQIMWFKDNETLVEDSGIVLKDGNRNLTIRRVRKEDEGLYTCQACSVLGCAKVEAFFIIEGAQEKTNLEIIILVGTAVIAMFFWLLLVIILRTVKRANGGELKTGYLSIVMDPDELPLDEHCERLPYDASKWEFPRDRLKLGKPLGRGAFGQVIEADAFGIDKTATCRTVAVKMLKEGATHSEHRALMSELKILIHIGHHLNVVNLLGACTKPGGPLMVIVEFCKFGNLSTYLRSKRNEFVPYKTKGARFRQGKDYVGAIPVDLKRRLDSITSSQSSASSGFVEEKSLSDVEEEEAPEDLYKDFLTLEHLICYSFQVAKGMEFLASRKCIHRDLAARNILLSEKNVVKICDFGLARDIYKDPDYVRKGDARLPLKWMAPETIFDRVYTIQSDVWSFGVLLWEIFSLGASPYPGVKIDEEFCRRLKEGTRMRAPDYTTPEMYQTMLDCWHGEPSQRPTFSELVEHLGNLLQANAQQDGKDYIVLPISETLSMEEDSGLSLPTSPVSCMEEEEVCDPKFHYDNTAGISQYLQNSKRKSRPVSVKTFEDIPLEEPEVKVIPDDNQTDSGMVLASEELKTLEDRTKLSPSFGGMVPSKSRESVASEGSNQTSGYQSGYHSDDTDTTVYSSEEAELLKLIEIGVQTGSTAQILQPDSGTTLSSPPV
Protocol: as §1, §2

[4] = biological target: FGFR1 (Homo sapiens (Human), UniProt P11362)
Chain of FGFR1 (P11362 22-822): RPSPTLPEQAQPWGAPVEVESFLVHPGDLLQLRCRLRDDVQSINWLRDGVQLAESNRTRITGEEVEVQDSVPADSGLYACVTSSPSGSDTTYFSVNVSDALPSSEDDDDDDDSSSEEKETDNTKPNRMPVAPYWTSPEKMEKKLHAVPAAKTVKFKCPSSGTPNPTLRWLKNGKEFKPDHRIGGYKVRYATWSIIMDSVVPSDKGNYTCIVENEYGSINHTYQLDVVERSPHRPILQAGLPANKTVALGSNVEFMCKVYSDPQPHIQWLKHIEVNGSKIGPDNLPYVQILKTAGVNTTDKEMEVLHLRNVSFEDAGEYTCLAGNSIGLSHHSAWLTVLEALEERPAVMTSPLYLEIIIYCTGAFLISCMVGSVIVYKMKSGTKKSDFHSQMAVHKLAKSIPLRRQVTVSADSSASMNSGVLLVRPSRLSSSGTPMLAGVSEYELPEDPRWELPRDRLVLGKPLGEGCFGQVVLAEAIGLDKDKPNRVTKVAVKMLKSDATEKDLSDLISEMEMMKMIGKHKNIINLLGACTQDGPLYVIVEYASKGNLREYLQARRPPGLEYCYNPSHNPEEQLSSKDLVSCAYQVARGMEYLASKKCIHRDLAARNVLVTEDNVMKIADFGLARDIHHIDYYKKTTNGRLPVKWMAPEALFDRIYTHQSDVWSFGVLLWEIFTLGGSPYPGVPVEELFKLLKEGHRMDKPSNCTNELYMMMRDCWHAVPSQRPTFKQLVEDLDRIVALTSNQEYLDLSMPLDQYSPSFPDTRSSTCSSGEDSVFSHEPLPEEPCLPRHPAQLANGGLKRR
Protocol: as §1, §2

[5] = biological target: FGFR3 (Homo sapiens (Human), UniProt P22607)
Chain of FGFR3 (P22607 23-806): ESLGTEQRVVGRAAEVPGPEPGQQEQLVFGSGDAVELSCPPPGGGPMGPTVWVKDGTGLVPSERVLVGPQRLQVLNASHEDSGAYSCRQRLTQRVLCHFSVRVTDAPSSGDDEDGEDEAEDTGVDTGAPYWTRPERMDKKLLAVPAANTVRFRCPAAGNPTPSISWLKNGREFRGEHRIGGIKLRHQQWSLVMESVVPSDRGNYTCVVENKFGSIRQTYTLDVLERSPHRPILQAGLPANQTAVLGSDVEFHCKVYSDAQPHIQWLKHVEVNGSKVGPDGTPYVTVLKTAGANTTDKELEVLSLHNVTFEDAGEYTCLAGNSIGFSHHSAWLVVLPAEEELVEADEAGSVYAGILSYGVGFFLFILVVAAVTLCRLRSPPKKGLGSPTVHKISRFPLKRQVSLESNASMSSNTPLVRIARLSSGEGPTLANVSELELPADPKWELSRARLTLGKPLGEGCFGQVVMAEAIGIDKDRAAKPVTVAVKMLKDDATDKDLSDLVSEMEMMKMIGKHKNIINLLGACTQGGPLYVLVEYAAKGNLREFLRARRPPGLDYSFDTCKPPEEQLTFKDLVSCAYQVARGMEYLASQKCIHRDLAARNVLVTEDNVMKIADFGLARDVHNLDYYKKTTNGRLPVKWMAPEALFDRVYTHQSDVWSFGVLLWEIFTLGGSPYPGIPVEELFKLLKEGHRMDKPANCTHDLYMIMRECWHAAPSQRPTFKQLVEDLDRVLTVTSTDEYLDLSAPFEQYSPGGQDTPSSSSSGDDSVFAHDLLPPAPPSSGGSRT
Protocol: as §1, §2

Chain of FGFR2 (P21802 22-821): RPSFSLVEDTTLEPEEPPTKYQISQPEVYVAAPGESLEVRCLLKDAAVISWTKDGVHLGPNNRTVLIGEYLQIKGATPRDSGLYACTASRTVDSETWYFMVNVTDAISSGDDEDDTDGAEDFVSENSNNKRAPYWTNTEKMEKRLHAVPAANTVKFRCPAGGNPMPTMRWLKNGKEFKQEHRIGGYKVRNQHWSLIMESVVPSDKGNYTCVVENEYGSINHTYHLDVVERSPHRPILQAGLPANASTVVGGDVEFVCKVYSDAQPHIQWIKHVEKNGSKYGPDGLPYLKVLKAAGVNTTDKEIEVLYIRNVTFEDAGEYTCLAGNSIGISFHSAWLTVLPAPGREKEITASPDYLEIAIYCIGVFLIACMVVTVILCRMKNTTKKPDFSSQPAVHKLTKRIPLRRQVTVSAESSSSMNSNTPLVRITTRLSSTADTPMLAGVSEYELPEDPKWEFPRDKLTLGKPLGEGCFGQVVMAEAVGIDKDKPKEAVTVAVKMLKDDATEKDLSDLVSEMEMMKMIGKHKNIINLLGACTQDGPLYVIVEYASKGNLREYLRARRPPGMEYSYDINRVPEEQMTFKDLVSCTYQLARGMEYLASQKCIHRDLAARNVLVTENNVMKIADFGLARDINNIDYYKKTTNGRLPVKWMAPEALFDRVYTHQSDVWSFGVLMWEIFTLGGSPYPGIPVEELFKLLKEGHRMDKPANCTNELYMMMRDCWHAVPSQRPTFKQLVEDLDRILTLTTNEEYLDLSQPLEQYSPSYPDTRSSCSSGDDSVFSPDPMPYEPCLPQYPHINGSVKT

Kd [1] [M]	Kd [2] [M]	Kd [3] [M]	Kd [4] [M]	Kd [5] [M]	SMILES
1.86e-06	2.45e-06	> 3.02e-06			COc1cc(OC)c2c(c1)N(c1ccc3ncc(-c4cnn(C)c4)cc3c1)CCN(C(C)C)C2 [Compound 1]
> 3.02e-06	> 3.02e-06	> 3.02e-06			COc1cc(OC)c2c(c1)N(c1ccc3ncc(-c4cnn(C)c4)cc3c1)CCN(C)C2 [Compound 2]
8.91e-07	1.38e-06	> 3.02e-06			COc1cc(OC)c2c(c1)N(c1ccc3ncc(-c4cn[nH]c4)cc3c1)CCN(C(C)C)C2 [Compound 3]
> 3.02e-06	> 3.02e-06	> 3.02e-06	> 3.02e-06	> 3.02e-06	COc1cc(O)cc2c1CN(C(C)C)CCN2c1ccc2ncc(-c3cnn(C)c3)cc2c1 [Compound 4]
> 3.02e-06	> 3.02e-06	> 3.02e-06			COc1cc(O)c2c(c1)N(c1ccc3ncc(-c4cnn(C)c4)cc3c1)CCN(C(C)C)C2 [Compound 5]
> 3.02e-06	> 3.02e-06	> 3.02e-06	> 3.02e-06	> 3.02e-06	CC(C)N1CCN(c2ccc3ncc(-c4cnn(C)c4)cc3c2)c2cc(O)cc(O)c2C1 [Compound 6]
> 1e-06	> 3.02e-06	2.69e-07	> 3.02e-06	> 3.02e-06	COc1cc(OC)c2c(c1)N(c1ccc3ncc(-c4cnn(C)c4)nc3n1)CCN(C(C)C)C2 [Compound 7]
9.33e-07	1.91e-07	1.05e-06			COc1cc(OC)c2c(c1)N(c1ccc3ncc(-c4cnn(C)c4)cc3n1)CCN(C(C)C)C2 [Compound 9]
> 3.02e-06	> 3.02e-06	> 3.02e-06	> 3.02e-06	> 3.02e-06	COc1cc(OC)c2c(c1)N(c1ccc3ncn(-c4cnn(C)c4)c(=O)c3c1)CCN(C(C)C)C2 [Compound 11]
1.86e-06	> 3.02e-06	> 3.02e-06			COc1cc(OC)c2c(c1F)N(c1ccc3ncn(-c4cnn(C)c4)c(=O)c3c1)CCN(C(C)C)C2 [Compound 12]
